Laboratory results reported in patent publication US5591735A, “Androstane derivatives substituted by a quaternary ammonium group in 16-position, pharmaceutical compositions containing them and process for preparing same” (Marvishi Pharmaceutical Co., Ltd., priority 1992, dated 1997).
Structures can show the parent of a compound that is named as a salt.

Tests used:
[1] = system: phrenic nerve-hemidiaphragm preparation; test: In vitro muscle relaxing effect on the isolated phrenic nerve-hemidiaphragm preparation of guinea-pigs; design: species or system guinea-pig; conditions: for IC90: read-out: ED90 guinea-pig
[2] = system: phrenic nerve-hemidiaphragm preparation; test: In vitro muscle relaxing effect on the isolated phrenic nerve-hemidiaphragm preparation of rats; design: species or system rat; conditions: for IC90: read-out: ED90 rat
[3] = system: phrenic nerve-hemidiaphragm preparation; test: Reversal of the in vitro neuromuscular block (wash-out, neostigmine, edrophonium); design: species or system rats and guinea-pigs
vagus nerve = test: Antivagal effect on anesthetized cat
[4] = system: anterior tibial muscle (musculus tibialis anterior); test: In vivo effect on the anterior tibial muscle of the guinea-pig; conditions: for time for the 75% neuromuscular block to decrease to 25%: 2×ED90 doses; for ED50 / ED90: Cavia porcellus, iv; for Clinical duration / Onset time: 2 × ED90 dose; for Clinical duration / Recovery 25%-75% / Onset time: guinea-pig, mean ± SEM (n = 4); for Onset time: time required to 95% block
neuromuscular block = test: Comparison of the effects of 2 × ED90 doses in beagle dog; assay type: in vivo; design: Tetanic fade: unit not given here; conditions: mean ± SEM; for Recovery 0-75% / Recovery index / Time to max. recovery: P <0.02; for T4/T1 at max. recovery: P <0.05; for Clinical duration / Onset time / Time to 80% block / ED90 / ED95: n = 8; for Clinical duration / Onset time: P <0.001; for Time to 80% block: P <0.01; for ED90 / ED95: Canis lupus familiaris, beagle dog
From the text: Comparison of the effects of 2 × ED90 doses in beagle dog (no.
animals in parentheses). Mean ± SEM.

vagus = conditions: 4×ED90 dose; cited from earlier work
[5] = background; cited from earlier work
[6] = rat, 0.1 Hz, 0.2 ms, supramaximal stimulus, mean ± SEM (n = 4)

Compound | IC90 [2, 6] [nM] | IC90 ([1]; Cavia porcellus) [nM] | time for the 75% neuromuscular block to decrease to 25% ([4]; guinea-pigs) [min] | ED50 [4] [mg/kg] | ED90 [4] [mg/kg] | Clinical duration [4] [min] | Recovery 25%-75% [4] [min] | Onset time [4] [min] | IC90 ([2]; Rattus norvegicus) [nM] | Recovery 0-75% (neuromuscular block; 2 × ED90, beagle dog, n = 4) [min] | Recovery index (neuromuscular block; 2 × ED90, beagle dog, n = 4) [min] | Time to max. recovery (neuromuscular block; 2 × ED90, beagle dog, n = 4) [min] | T4/T1 at max. recovery (neuromuscular block; 2 × ED90, beagle dog, n = 4) | Clinical duration (neuromuscular block; 2 × ED90, beagle dog) [min] | Onset time (neuromuscular block; 2 × ED90, beagle dog) [s] | Time to 80% block (neuromuscular block; 2 × ED90, beagle dog) [s] | ED90 (neuromuscular block) [mg/kg] | ED95 (neuromuscular block) [mg/kg] | cardiovascular side effects / stability [5] | also measured
7',12dihydroxy-6,6dimethoxy-2,2',2trimethyltubocuraranium chloride hydrochloride [Tubocurarine chloride] | 1020 ± 10 | – | – | – | – | – | – | – | – | – | – | – | – | – | – | – | – | – | – | IC90 ([1]; guinea-pig, 0.1 Hz, 0.2 ms, supramaximal stimulus, mean ± SEM (n = 4)): 1330 ± 90 nM
C=CC[N+]1([C@H]2C[C@H]3[C@@H]4CC[C@H]5C[C@H](OC(C)=O)[C@@H](N6CCC7(CC6)OCCO7)C[C@]5(C)[C@H]4CC[C@]3(C)[C@H]2OC(C)=O)CCCC1.[Br-] [Example 8, 1-[3α,17β-bis(acetyloxy)-2β-(1,4-dioxa-8-azaspiro[4.5]dec-8-yl)-5α-androstan-16β-yl]-1-(2-propenyl)pyrrolidinium bromide] | – | 900 ± 30 | 10.1 | 0.034 ± 0.002 | 0.048 ± 0.0027 | 10.1 ± 1.32 | 2.4 ± 0.3 | 0.9 ± 0.18 | 8370 ± 260 | 16.2 ± 0.9 | 3.4 ± 0.4 | 24.4 ± 2.0 | 91.3 ± 4.8 | 12.6 ± 0.6 | 75.3 ± 5.9 | 48.4 ± 2.9 | 0.0105 ± 0.0002 | 0.0111 ± 0.0002 | – | onset of action ([3]; in vitro): rapid; reversibility by wash-out ([3]; in vitro): easily reversible by wash-out; antagonism of the effect ([3]; with neostigmine methyl sulfate or edrophonium chloride): could also be antagonized with neostigmine methyl sulfate; neuromuscular blocking (inhibitory) effect compared with known muscle relaxants ([1]; guinea-pig, in vitro): of the similar order of magnitude as that of other known, clinically employed muscle relaxants; block of the vagus (vagus nerve; 8×ED90 dose): did not block the vagus; inhibition of the effects of electrical stimulation of the vagus on heart rate or blood pressure (vagus nerve; 8×ED90 dose): did not inhibit the effects of electrical stimulation of this nerve on heart rate or blood pressure; change in heart rate or blood pressure on electrical stimulation of the vagus (vagus nerve; in vivo cat experiments): no significant change in heart rate or blood pressure; effect on the vagus (vagus nerve; in vivo cat experiments): no stimulating effect on the vagus; Decrease in heart rate (vagus nerve; vagal stimulation, anesthetized cat, mean ± SEM (n = 4), control 14 ± 1.8): 15 ± 2.9%; Decrease in blood pressure (vagus nerve; vagal stimulation, anesthetized cat, mean ± SEM (n = 4), control 40.0 ± 8.1): 32.0 ± 6.6 Hgmm; duration of action compared with reference substances ([4]; guinea-pigs, in vivo): shorter than those of other reference substances with similar chemical structure; onset of action compared with reference substances ([4]; guinea-pigs, in vivo): more rapid; neuromuscular blocking (inhibitory) effect compared with known muscle relaxants ([2]; rat, in vitro): of the similar order of magnitude as that of other known, clinically employed muscle relaxants; Tetanic fade (neuromuscular block; 2 × ED90, beagle dog, n = 4, P n.s. (not significant)): 97.5 ± 1.9
CC(=O)O[C@H]1C[C@@H]2CC[C@@H]3[C@H](CC[C@@]4(C)[C@H]3C[C@H]([N+]3(C)CCCCC3)[C@@H]4OC(C)=O)[C@@]2(C)C[C@@H]1[N+]1(C)CCCCC1 [Pancuronium bromide, 1'-[3α,17β-bis(acetyloxy)-5α-androstane-2β,16β-diyl]bis[1-methylpiperidinium]dibromide] | – | 290 ± 10 | 45.6 | 0.01 ± 0.0011 | 0.015 ± 0.0019 | 45.6 ± 5.68 | 14.8 ± 2.45 | 1.1 ± 0.31 | 6360 ± 30 | – | – | – | – | – | – | – | – | – | – | inhibition of the decrease of blood pressure caused by vagal stimulation (vagus): 50%; inhibition of the decrease of heart rate caused by vagal stimulation (vagus): 50%
CC(=O)O[C@H]1C[C@@H]2CC[C@@H]3[C@H](CC[C@@]4(C)[C@H]3C[C@H](N3CC[N+](C)(C)CC3)[C@@H]4OC(C)=O)[C@@]2(C)C[C@@H]1N1CC[N+](C)(C)CC1.[Br-].[Br-] [Pipecuronium bromide, 4,4'-[3α,17β-bis(acetyloxy)-5α-androstane-2β,16β-diyl]bis[1,1-dimethylpiperazinium]dibromide] | 1500 ± 40 | – | 60.6 | 0.004 ± 0.0007 | 0.006 ± 0.0007 | 60.6 ± 9.28 | 24.6 ± 3.71 | 1.5 ± 0.08 | – | – | – | – | – | – | – | – | – | – | exceed those of pancuronium bromide or vecuronium bromide | IC90 ([1]; Cavia porcellus, guinea-pig, 0.1 Hz, 0.2 ms, supramaximal stimulus, mean ± SEM (n = 4)): 80 ± 3 nM
CC(=O)O[C@H]1C[C@@H]2CC[C@@H]3[C@H](CC[C@@]4(C)[C@H]3C[C@H]([N+]3(C)CCCCC3)[C@@H]4OC(C)=O)[C@@]2(C)C[C@@H]1N1CCCCC1 [Vecuronium bromide, 1-[3α,17β-bis(acetyloxy)-2β-(1-piperidinyl)androstan-16β-yl]1-methylpiperidinium bromide hydrochloride] | – | 250 ± 10 | – | 0.007 ± 0.0019 | 0.011 ± 0.002 | 26.6 ± 4.61 | 9.0 ± 2.35 | 1.3 ± 0.51 | 8720 ± 380 | 24.9 ± 3.0 | 6.6 ± 1.1 | 31.4 ± 4.3 | 71.0 ± 2.9 | 17.8 ± 1.1 | 115.1 ± 8.6 | 62.8 ± 4.5 | 0.0358 ± 0.0009 | 0.0379 ± 0.001 | lack of cardiovascular side effects | –
